Source: patent US20250177359A1, “COMPOUNDS FOR USE IN THE TREATMENT OF CANCER AND INFLAMMATORY CONDITIONS” (priority 2022, published 2025)
Read-outs that look alike come from different tables or passages of the source.

Target: T1, TNKS2 (Homo sapiens, UniProt Q9H2K2)
T1 sequence (Q9H2K2 1-1166): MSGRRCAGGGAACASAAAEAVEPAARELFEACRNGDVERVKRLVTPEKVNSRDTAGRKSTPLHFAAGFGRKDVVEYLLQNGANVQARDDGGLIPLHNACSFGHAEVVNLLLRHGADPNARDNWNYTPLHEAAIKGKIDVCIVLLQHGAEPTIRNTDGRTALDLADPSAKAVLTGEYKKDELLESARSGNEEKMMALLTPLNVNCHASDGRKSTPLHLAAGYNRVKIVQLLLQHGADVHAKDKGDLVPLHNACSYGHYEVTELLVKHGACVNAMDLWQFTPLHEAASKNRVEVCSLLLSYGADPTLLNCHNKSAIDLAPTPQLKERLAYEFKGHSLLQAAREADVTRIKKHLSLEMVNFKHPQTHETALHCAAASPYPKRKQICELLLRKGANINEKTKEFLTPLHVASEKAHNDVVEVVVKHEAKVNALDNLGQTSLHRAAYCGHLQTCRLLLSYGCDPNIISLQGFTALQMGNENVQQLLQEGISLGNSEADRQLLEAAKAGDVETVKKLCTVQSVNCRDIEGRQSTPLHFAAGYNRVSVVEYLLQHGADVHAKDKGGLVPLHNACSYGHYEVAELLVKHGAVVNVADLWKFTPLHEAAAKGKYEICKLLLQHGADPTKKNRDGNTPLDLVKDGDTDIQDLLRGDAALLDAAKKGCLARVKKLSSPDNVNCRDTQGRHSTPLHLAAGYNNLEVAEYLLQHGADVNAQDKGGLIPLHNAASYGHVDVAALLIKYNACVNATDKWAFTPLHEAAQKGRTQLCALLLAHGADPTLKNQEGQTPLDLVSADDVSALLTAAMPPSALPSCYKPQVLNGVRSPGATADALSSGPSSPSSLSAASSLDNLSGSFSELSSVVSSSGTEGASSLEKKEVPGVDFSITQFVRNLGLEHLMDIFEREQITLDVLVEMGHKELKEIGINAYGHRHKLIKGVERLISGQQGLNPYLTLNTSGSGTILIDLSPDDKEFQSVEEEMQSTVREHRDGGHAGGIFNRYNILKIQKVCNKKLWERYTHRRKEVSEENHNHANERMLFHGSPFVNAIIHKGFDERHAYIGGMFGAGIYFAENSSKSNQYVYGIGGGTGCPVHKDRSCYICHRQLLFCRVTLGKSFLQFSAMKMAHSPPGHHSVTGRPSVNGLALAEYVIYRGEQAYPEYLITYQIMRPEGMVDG
Experiment: biochemical
Experimental: All starting materials, reagents, and solvents were purchased from common commercial suppliers and were used as such without further purification. […] Organic solutions were dried over anhydrous Na2SO4 and concentrated with rotary evaporator at low pressure. All the reactions were routinely checked by thin-layer chromatography (TLC) on silica gel 60F254 (Merck) and visualized by using UV and iodine. Flash chromatography separations were carried out on Merck silica gel 60 (mesh 230-400) or by using automated Buchi Reveleris X2-UV with column FP Ecoflex Si 12 g. Yields were of purified products and were not optimized. ^1HNMR spectra were recorded at 400 MHz (Bruker Avance DRX-400), while ^13CNMR spectra were recorded at 101 MHz (Bruker Avance DRX-400). Chemical shifts are given in ppm (δ) relative to TMS. […] Mating constant (J) are reported in Hz. The purity of the tested compounds was evaluated by HPLC analysis using Jasco LC-4000 instrument equipped with a UV-Visible Diode Array Jasco-MD4015 (Jasco Corporation, Tokyo, Japan), and XTerra MS C18 column, 5 μm×4.6 mm×150 mm (Waters Corporation, Massachusetts, USA). Chromatograms were analyzed by ChromNAV2.0 Chromatography Data System software. […] The peak retention time (ret. time) is given in minutes. […] 1-Isobutoxy-4-methoxy-2-nitrobenzene (113). Isobutyl alcohol (0.6 mL, 6.43 mmol) was added, under nitrogen atmosphere at 0° C., to a suspension of NaH (0.26 g, 6.43 mmol) in dry DMF. After 15 minutes, 1-fluoro-4-methoxy-2-nitrobenzene 112 (1 g, 5.84 mmol) was also added and the reaction mixture was stirred at 80° C. for 4 h. […] (2-Isobutoxy-5-methoxyphenyl)amine (114). Zn (1.57 g, 24 mmol) and NH4C1 (2.45 g, 40 mmol) were added to a solution of 113 (0.46 g, 2 mmol) in acetone/H2O (50 mL, ratio 5:1). The reaction mixture was stirred at 60° C. for 3 h and, then, it was filtered over celite. […] N-(2,5-diethoxyphenyl)thiourea (55). […] N-(2-isobutoxy-5-methoxyphenyl)thiourea (115). […] A solution of Br2 (0.2 mL, 3.3 mmol) in CHCl3 (5 mL) was slowly added to a suspension of 45 (0.6 g, 3.3 mmol) in CHCl3 (13 mL), at 0° C. The reaction mixture was stirred at r.t. for 4 h and, then, a 10% solution of Na2SO3 in water was added to the mixture. […] 4,7-Diethoxy-1,3-benzothiazol-2-amine (66). […] 4-Isobutoxy-7-methoxy-1,3-benzothiazol-2-amine (116). […] Hydrazine hydrate (0.23 mL, 4.77 mmol) and CH3COOH (0.12 mL, 2.1 mmol) were added to a suspension of 56 (0.29 g, 1.59 mmol) in ethylene glycol (8 mL), and the reaction mixture was stirred for 24 h at 125° C. […] 6-Ethyl-2-hydrazino-1,3-benzothiazole (69). […] 6-Ispropyl-2-hydrazino-1,3-benzothiazole (70). […] 2-Hydrazino-4,7-dimethoxy-1,3-benzothiazole (73). […] 2-Hydrazino-5,7-dimethoxy-1,3-benzothiazole (75). […] 2-Hydrazino-4,7-Diethoxy-1,3-benzothiazole (77). […] 2-Hydrazino-5-methyl[1,3]thiazolo[5,4-b]pyridine (100). […] A solution of 67 (0.13 g, 0.65 mmol) in formic acid (5 mL) was refluxed for 10 h. The reaction mixture was then poured into ice/water and the pH was neutralized using a saturated solution of NaHCO3.

[1] = read-out: TNKS2 IC50, NAD+ consumption assay, > less than 50% inhibition at highest concentration, >> no inhibition

Row | SMILES | IC50 [1] [µM] | also measured
1 | COc1ccc(OC)c2c1sc1nnc(N)n12 [Compound 28, 5,8-Dimethoxy[1,2,4]triazolo[3,4-b][1,3]benzothiazol-3-amine] | 10 | –
2 | Oc1ccc2c(c1)sc1nncn12 [Compound 10] | – | IC50 (read-out: TNKS2 IC50, NAD+ consumption assay): 0.37 µM
3 | Cc1ccc2c(c1)sc1nnc(N)n12 [Compound 22, 7-Methyl[1,2,4]triazolo[3,4-b][1,3]benzothiazol-3-amine] | 5.7 | –
4 | Nc1nnc2sc3cc(O)ccc3n12 [Compound 109, 3-Amino[1,2,4]triazolo[3,4-b][1,3]benzothiazol-7-ol] | – | IC50: ~0.2 µM
